Values belong to the compound of their own block, whether it stands above or below them.
Test system: Crude diglycosidase
Test: Examination of temperature in the conversion into isoflavone aglycons by diglycosidase using soybean materials
Format: biochemical, Penicillium multicolor IAM7153
Set-up: Decomposition efficiency of glycitin family in roasted soy flour / Decomposition efficiency of daidzin family in roasted soy flour / Decomposition efficiency of genistin family in soymilk / Decomposition efficiency of daidzin family in soymilk / Decomposition efficiency of glycitin family in defatted soybean / Decomposition efficiency of daidzin family in defatted soybean: concentration or dose not given beside the values
Conditions: for maximum isolation of aglycons: reaction at 55° C. for 6 hours
Description: Into 400 μL of 20 mM acetate buffer of pH 4.0 was suspended 50 mg of each of various soybean materials (roasted soy flour (manufactured by Fuji Shokuryo K.K.), soymilk (manufactured by Gitoh Shokuhin K.K.), defatted soybean (manufactured by Fuji Seiyu K.K.), concentrated soybean protein (manufactured by Fuji Seiyu K.K.)), whereby a substrate solution was prepared. Crude diglycosidase was diluted with 20 mM acetate buffer of pH 4.0 to be the glycosidase activity of 1.88 AU/mL. Fifty μL of the enzyme solution was mixed with the substrate solution and the whole was reacted at 80, 65, 55, 45, 37, or 30° C. at the total volume of 500 μL. To the reaction mixture was added 700 μL of ethanol after 0, 1, 3, and 6 hours of the reaction. After stirring and ultrasonication, the mixture was subjected to centrifugal separation at 15,000 rpm and 4° C. for 10 minutes. The supernatant was filtered through a filter and the existence of isoflavone glycosides and aglycon isoflavones contained in the reaction mixture was detected by HLPC.

[1] = 30° C., heat treatment of enzyme no, reaction time 0 h
[2] = 30° C., heat treatment of enzyme no, reaction time 1 h
[3] = 30° C., heat treatment of enzyme no, reaction time 3 h
[4] = 30° C., heat treatment of enzyme no, reaction time 6 h
[5] = 30° C., heat treatment of enzyme yes, reaction time 6 h
[6] = 45° C., heat treatment of enzyme no, reaction time 0 h
[7] = 45° C., heat treatment of enzyme no, reaction time 1 h
[8] = 45° C., heat treatment of enzyme no, reaction time 3 h
[9] = 45° C., heat treatment of enzyme no, reaction time 6 h
[10] = 45° C., heat treatment of enzyme yes, reaction time 6 h
[11] = 45 °C, heat treatment of enzyme: no, 0 h
[12] = 45 °C, heat treatment of enzyme: no, 1 h
[13] = 45 °C, heat treatment of enzyme: no, 3 h
[14] = 45 °C, heat treatment of enzyme: no, 6 h
[15] = 45 °C, heat treatment of enzyme: yes, 6 h
[16] = 55° C., heat treatment of enzyme no, reaction time 0 h
[17] = 55° C., heat treatment of enzyme no, reaction time 1 h
[18] = 55° C., heat treatment of enzyme no, reaction time 3 h
[19] = 55° C., heat treatment of enzyme no, reaction time 6 h
[20] = 55° C., heat treatment of enzyme yes, reaction time 6 h
[21] = 55 °C, heat treatment of enzyme: no, 0 h
[22] = 55 °C, heat treatment of enzyme: no, 1 h
[23] = 55 °C, heat treatment of enzyme: no, 3 h
[24] = 55 °C, heat treatment of enzyme: no, 6 h
[25] = 55 °C, heat treatment of enzyme: yes, 6 h
[26] = 65° C., heat treatment of enzyme no, reaction time 0 h
[27] = 65° C., heat treatment of enzyme no, reaction time 1 h
[28] = 65° C., heat treatment of enzyme no, reaction time 3 h
[29] = 65° C., heat treatment of enzyme no, reaction time 6 h
[30] = 65° C., heat treatment of enzyme yes, reaction time 6 h
[31] = 65 °C, heat treatment of enzyme: no, 0 h
[32] = 65 °C, heat treatment of enzyme: no, 1 h
[33] = 65 °C, heat treatment of enzyme: no, 3 h
[34] = 65 °C, heat treatment of enzyme: no, 6 h
[35] = 65 °C, heat treatment of enzyme: yes, 6 h
[36] = 80° C., heat treatment of enzyme no, reaction time 0 h
[37] = 80° C., heat treatment of enzyme no, reaction time 1 h
[38] = 80° C., heat treatment of enzyme no, reaction time 3 h
[39] = 80° C., heat treatment of enzyme no, reaction time 6 h
[40] = 80° C., heat treatment of enzyme yes, reaction time 6 h
[41] = 80 °C, heat treatment of enzyme: no, 0 h
[42] = 80 °C, heat treatment of enzyme: no, 1 h
[43] = 80 °C, heat treatment of enzyme: no, 3 h
[44] = 80 °C, heat treatment of enzyme: no, 6 h
[45] = 80 °C, heat treatment of enzyme: yes, 6 h

Decomposition efficiency of daidzin family in concentrated soybean protein [1]: 3.0% | Decomposition efficiency of daidzin family in defatted soybean [1]: 14.5% | Decomposition efficiency of daidzin family in concentrated soybean protein [2]: 26.2% | Decomposition efficiency of daidzin family in defatted soybean [2]: 53.4% | Decomposition efficiency of daidzin family in concentrated soybean protein [3]: 42.7% | Decomposition efficiency of daidzin family in defatted soybean [3]: 54.8% | Decomposition efficiency of daidzin family in concentrated soybean protein [4]: 52.5% | Decomposition efficiency of daidzin family in defatted soybean [4]: 54.9% | Decomposition efficiency of daidzin family in concentrated soybean protein [5]: 3.2% | Decomposition efficiency of daidzin family in defatted soybean [5]: 54.6% | Decomposition efficiency of daidzin family in soymilk (30 °C, heat treatment of enzyme: no, 0 h): 9.1% | Decomposition efficiency of daidzin family in soymilk (30 °C, heat treatment of enzyme: no, 1 h): 41.8% | Decomposition efficiency of daidzin family in soymilk (30 °C, heat treatment of enzyme: no, 3 h): 47.2% | Decomposition efficiency of daidzin family in soymilk (30 °C, heat treatment of enzyme: no, 6 h): 53.8% | Decomposition efficiency of daidzin family in soymilk (30 °C, heat treatment of enzyme: yes, 6 h): 9.1% | Decomposition efficiency of daidzin family in roasted soy flour (35 °C, heat treatment of enzyme: no, 0 h): 3.6% | Decomposition efficiency of daidzin family in roasted soy flour (35 °C, heat treatment of enzyme: no, 1 h): 41.4% | Decomposition efficiency of daidzin family in roasted soy flour (35 °C, heat treatment of enzyme: no, 3 h): 54.7% | Decomposition efficiency of daidzin family in roasted soy flour (35 °C, heat treatment of enzyme: no, 6 h): 60.4% | Decomposition efficiency of daidzin family in roasted soy flour (35 °C, heat treatment of enzyme: yes, 6 h): 5.8% | Decomposition efficiency of daidzin family in concentrated soybean protein [6]: 3.1% | Decomposition efficiency of daidzin family in defatted soybean [6]: 16.2% | Decomposition efficiency of daidzin family in concentrated soybean protein [7]: 45.3% | Decomposition efficiency of daidzin family in defatted soybean [7]: 54.5% | Decomposition efficiency of daidzin family in concentrated soybean protein [8]: 48.8% | Decomposition efficiency of daidzin family in defatted soybean [8]: 56.3% | Decomposition efficiency of daidzin family in concentrated soybean protein [9]: 55.5% | Decomposition efficiency of daidzin family in defatted soybean [9]: 58.3% | Decomposition efficiency of daidzin family in concentrated soybean protein [10]: 5.7% | Decomposition efficiency of daidzin family in defatted soybean [10]: 55.7% | Decomposition efficiency of daidzin family in roasted soy flour [11]: 3.7% | Decomposition efficiency of daidzin family in soymilk [11]: 8.9% | Decomposition efficiency of daidzin family in roasted soy flour [12]: 53.5% | Decomposition efficiency of daidzin family in soymilk [12]: 43.0% | Decomposition efficiency of daidzin family in roasted soy flour [13]: 59.4% | Decomposition efficiency of daidzin family in soymilk [13]: 52.0% | Decomposition efficiency of daidzin family in roasted soy flour [14]: 66.2% | Decomposition efficiency of daidzin family in soymilk [14]: 62.8% | Decomposition efficiency of daidzin family in roasted soy flour [15]: 8.1% | Decomposition efficiency of daidzin family in soymilk [15]: 8.2% | Decomposition efficiency of daidzin family in concentrated soybean protein [16]: 3.0% | Decomposition efficiency of daidzin family in defatted soybean [16]: 14.5% | Decomposition efficiency of daidzin family in concentrated soybean protein [17]: 55.0% | Decomposition efficiency of daidzin family in defatted soybean [17]: 55.0% | Decomposition efficiency of daidzin family in concentrated soybean protein [18]: 59.4% | Decomposition efficiency of daidzin family in defatted soybean [18]: 57.3% | Decomposition efficiency of daidzin family in concentrated soybean protein [19]: 62.3% | Decomposition efficiency of daidzin family in defatted soybean [19]: 59.7% | Decomposition efficiency of daidzin family in concentrated soybean protein [20]: 3.2% | Decomposition efficiency of daidzin family in defatted soybean [20]: 55.9% | Decomposition efficiency of daidzin family in roasted soy flour [21]: 3.7% | Decomposition efficiency of daidzin family in soymilk [21]: 8.6% | Decomposition efficiency of daidzin family in roasted soy flour [22]: 57.2% | Decomposition efficiency of daidzin family in soymilk [22]: 49.1% | Decomposition efficiency of daidzin family in roasted soy flour [23]: 67.5% | Decomposition efficiency of daidzin family in soymilk [23]: 58.9% | Decomposition efficiency of daidzin family in roasted soy flour [24]: 73.3% | Decomposition efficiency of daidzin family in soymilk [24]: 68.9% | Decomposition efficiency of daidzin family in roasted soy flour [25]: 5.3% | Decomposition efficiency of daidzin family in soymilk [25]: 8.6% | Decomposition efficiency of daidzin family in concentrated soybean protein [26]: 3.0% | Decomposition efficiency of daidzin family in defatted soybean [26]: 16.2% | Decomposition efficiency of daidzin family in concentrated soybean protein [27]: 53.9% | Decomposition efficiency of daidzin family in defatted soybean [27]: 55.3% | Decomposition efficiency of daidzin family in concentrated soybean protein [28]: 55.4% | Decomposition efficiency of daidzin family in defatted soybean [28]: 58.4% | Decomposition efficiency of daidzin family in concentrated soybean protein [29]: 56.7% | Decomposition efficiency of daidzin family in defatted soybean [29]: 62.7% | Decomposition efficiency of daidzin family in concentrated soybean protein [30]: 3.2% | Decomposition efficiency of daidzin family in defatted soybean [30]: 32.0% | Decomposition efficiency of daidzin family in roasted soy flour [31]: 3.6% | Decomposition efficiency of daidzin family in soymilk [31]: 9.1% | Decomposition efficiency of daidzin family in roasted soy flour [32]: 56.3% | Decomposition efficiency of daidzin family in soymilk [32]: 48.3% | Decomposition efficiency of daidzin family in roasted soy flour [33]: 59.8% | Decomposition efficiency of daidzin family in soymilk [33]: 56.1% | Decomposition efficiency of daidzin family in roasted soy flour [34]: 62.2% | Decomposition efficiency of daidzin family in soymilk [34]: 64.7% | Decomposition efficiency of daidzin family in roasted soy flour [35]: 4.2% | Decomposition efficiency of daidzin family in soymilk [35]: 8.8% | Decomposition efficiency of daidzin family in concentrated soybean protein [36]: 3.1% | Decomposition efficiency of daidzin family in defatted soybean [36]: 16.2% | Decomposition efficiency of daidzin family in concentrated soybean protein [37]: 31.9% | Decomposition efficiency of daidzin family in defatted soybean [37]: 52.4% | Decomposition efficiency of daidzin family in concentrated soybean protein [38]: 32.0% | Decomposition efficiency of daidzin family in defatted soybean [38]: 52.0% | Decomposition efficiency of daidzin family in concentrated soybean protein [39]: 30.7% | Decomposition efficiency of daidzin family in defatted soybean [39]: 51.7% | Decomposition efficiency of daidzin family in concentrated soybean protein [40]: 3.2% | Decomposition efficiency of daidzin family in defatted soybean [40]: 21.7% | Decomposition efficiency of daidzin family in roasted soy flour [41]: 3.7% | Decomposition efficiency of daidzin family in soymilk [41]: 8.9% | Decomposition efficiency of daidzin family in roasted soy flour [42]: 47.7% | Decomposition efficiency of daidzin family in soymilk [42]: 40.3% | Decomposition efficiency of daidzin family in roasted soy flour [43]: 47.7% | Decomposition efficiency of daidzin family in soymilk [43]: 39.7% | Decomposition efficiency of daidzin family in roasted soy flour [44]: 40.8% | Decomposition efficiency of daidzin family in soymilk [44]: 34.1% | Decomposition efficiency of daidzin family in roasted soy flour [45]: 3.8% | Decomposition efficiency of daidzin family in soymilk [45]: 8.8% | maximum isolation of aglycons (concentrated soybean protein): about 62% | maximum isolation of aglycons (defatted soybean): about 60% | maximum isolation of aglycons (soy flour): about 73% | maximum isolation of aglycons (soymilk): about 70%
Structure (SMILES): O=c1c(-c2ccc(O)cc2)coc2cc(O)ccc12 [daidzein]

Decomposition efficiency of genistin family in defatted soybean [2]: 47.4% | Decomposition efficiency of genistin family in defatted soybean [3]: 50.2% | Decomposition efficiency of genistin family in defatted soybean [4]: 46.6% | Decomposition efficiency of genistin family in defatted soybean [5]: 50.2% | Decomposition efficiency of genistin family in defatted soybean [6]: 14.5% | Decomposition efficiency of genistin family in defatted soybean [7]: 49.2% | Decomposition efficiency of genistin family in defatted soybean [8]: 51.8% | Decomposition efficiency of genistin family in defatted soybean [9]: 54.6% | Decomposition efficiency of genistin family in defatted soybean [10]: 50.4% | Decomposition efficiency of genistin family in defatted soybean [17]: 50.5% | Decomposition efficiency of genistin family in defatted soybean [18]: 53.7% | Decomposition efficiency of genistin family in defatted soybean [19]: 56.5% | Decomposition efficiency of genistin family in defatted soybean [20]: 51.9% | Decomposition efficiency of genistin family in defatted soybean [26]: 14.5% | Decomposition efficiency of genistin family in defatted soybean [27]: 49.9% | Decomposition efficiency of genistin family in defatted soybean [28]: 51.8% | Decomposition efficiency of genistin family in defatted soybean [29]: 54.5% | Decomposition efficiency of genistin family in defatted soybean [30]: 30.7% | Decomposition efficiency of genistin family in defatted soybean [36]: 14.5% | Decomposition efficiency of genistin family in defatted soybean [37]: 44.9% | Decomposition efficiency of genistin family in defatted soybean [38]: 43.3% | Decomposition efficiency of genistin family in defatted soybean [39]: 41.3% | Decomposition efficiency of genistin family in defatted soybean [40]: 19.6% | maximum isolation of aglycons (concentrated soybean protein): about 61% | maximum isolation of aglycons (defatted soybean): about 57% | maximum isolation of aglycons (soy flour): about 74% | maximum isolation of aglycons (soymilk): about 80%
Structure (SMILES): O=c1c(-c2ccc(O)cc2)coc2cc(O)cc(O)c12 [genistein]

Reference: patent US7118895B2, “Process for producing aglycon by using diglycosidase and flavor-improved food containing the aglycon and converting agent to be used in the process” (Amano Enzyme Inc., priority 2000, dated 2006)
